This test concerns the target T1, Human BCL-XL protein (N-terminal HiBiT tagged BCL-XL expressed in HT1080 cells) (Homo sapiens, UniProt Q07817).
T1 construct: expressed in transfected cells; host or cells: HT-1080 (ATCC CCL-121), stably transduced with lentivirus pLV-UBC-N-HiBiT-BCL-XL-PGK-puro and selected with puromycin
Briefly: HiBiT Based Degradation Assay. It counts as cell-based. The settings on record: 24 hours incubation; for DC50: BCL-XL degradation, HT1080 cells expressing N-HiBiT-BCL-XL, normalized with DMSO control, geometric mean for multiple data points, read-out: EC50 (24 h); for Ymin (24 h): bottom of BCL-XL degradation curve (remaining HiBiT-BCL-XL signal vs DMSO control), HT1080 cells. From the text: HiBiT Based Degradation Assay
Human BCL-XL protein coding open reading frame fused with N-terminal HiBiT coding sequence (N-HiBiT-BCL-XL) was synthesized from Integrated DNA Technologies (IDT). Next, N-HiBiT-BCL-XL sequence was cloned into pLV-UBC-PGK-Puro, a lentivirus plasmid purchased from Vectorbuilder, to generate pLV-UBC-N-HiBiT-BCL-XL-PGK-puro. Lentiviral particles were generated from Lenti-X™ 293T cells (Clontech) by co-transfection of pLV-UBC-N-HiBiT-BCL-XL-PGK-puro plasmids and lentiviral packaging plasmid mix (Cellecta). HT-1080 [HT1080](ATCC CCL-121™) cells were infected with the lentivirus, and HT1080 cells stably integrated with the lentiviral vector were established by incubation with 1 μg/mL puromycin (Thermofisher). HT1080 cells expressing N-terminal HiBiT tagged BCL-XL were dispensed into 384-well plates pre-spotted with compounds at varying concentrations. Three thousand cells were seeded into each well in 40 μL of RPMI 1640 media. After 24 hours of incubation at 37° C. with 5% CO2, 30 μL of the NANO-GLO® HiBiT Lytic Detection System working solution (Promega) was added to each well and incubated at room temperature for 30 min. After incubation, luminescence was read on a PHERAstar FSX Plate Reader (BMG). BCL-XL degradation at each indicated concentration was normalized with DMSO control. The BCL-XL degradation curves were plotted using a four-parameter logistic model. For compounds displaying hook effects, curve fitting was performed using bottom point of hook curves (i.e., the point of Ymin) as bottom plateau to calculate EC50. For compounds with multiple data points, the geometric mean is presented.
Background: With HiBiT, luminescence reflects the tagged protein that the partner subunit can reach.

From patent US20260216170A1, “TETRAHYDROISOQUINOLINE HETEROBIFUNCTIONAL BCL-XL DEGRADERS” (Treeline Biosciences, Inc., priority 2023, published 2026) come the findings set out here.

T1 sequence (Q07817 whole entry): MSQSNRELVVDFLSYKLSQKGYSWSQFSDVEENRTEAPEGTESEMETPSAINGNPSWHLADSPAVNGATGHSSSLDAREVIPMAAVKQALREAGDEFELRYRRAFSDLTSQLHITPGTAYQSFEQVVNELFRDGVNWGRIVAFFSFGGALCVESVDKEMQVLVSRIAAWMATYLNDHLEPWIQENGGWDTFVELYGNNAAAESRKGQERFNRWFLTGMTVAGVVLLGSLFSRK

Take `COc1c(NC(=O)CN2CCC(CCCOc3cccc(-c4ccc(N5CCc6ccnc(C(=O)Nc7nc8ccccc8s7)c6C5)nc4C(=O)O)c3C(F)(F)F)CC2)ccc2c(C3CCC(=O)NC3=O)nn(C)c12` (stereo not drawn) [Compound 180, 6-[8-(1,3-benzothiazol-2-ylcarbamoyl)-3,4-dihydro-1H-2,7-naphthyridin-2-yl]-3-[3-[3-[1-[2-[[3-(2,6-dioxo-3-piperidyl)-7-methoxy-1-methyl-indazol-6-yl]amino]-2-oxo-ethyl]-4-piperidyl]propoxy]-2-(trifluoromethyl)phenyl]pyridine-2-carboxylic acid]: the DC50 fell in the range of 10 to 100 nM and the “Ymin (24 h)” value was “B (30% ≤ Ymin < 50%)”.
Regarding `Cc1c(OC2CC3(CCN(CC(=O)Nc4ccc5c(C6CCC(=O)NC6=O)nn(C)c5n4)CC3)C2)cccc1-c1ccc(N2CCc3cccc(C(=O)Nc4nc5ccccc5s4)c3C2)nc1C(=O)O` (stereo not drawn) [Compound 194, 6-(8-(benzo[d]thiazol-2-ylcarbamoyl)-3,4-dihydroisoquinolin-2(1H)-yl)-3-(3-((7-(2-((3-(2,6-dioxopiperidin-3-yl)-1-methyl-1H-pyrazolo[3,4-b]pyridin-6-yl)amino)-2-oxoethyl)-7-azaspiro[3.5]nonan-2-yl)oxy)-2-methylphenyl)picolinic acid], the DC50 is < 10 nM and the “Ymin (24 h)” value is reported as “B (30% ≤ Ymin < 50%)”.
For `COc1c(NC(=O)CN2CCC(CCCOc3ccc(-c4ccc(N5CCc6cccc(C(=O)Nc7nc8ccccc8s7)c6C5)nc4C(=O)O)c(C)c3)CC2)ccc2c(C3CCC(=O)NC3=O)nn(C)c12` (stereo not drawn) [Compound 105, 6-[8-(1,3-benzothiazol-2-ylcarbamoyl)-3,4-dihydro-1H-isoquinolin-2-yl]-3-[4-[3-[1-[2-[[3-(2,6-dioxo-3-piperidyl)-7-methoxy-1-methyl-indazol-6-yl]amino]-2-oxo-ethyl]-4-piperidyl]propoxy]-2-methyl-phenyl]pyridine-2-carboxylic acid], the DC50 lay within 10 to 100 nM and the “Ymin (24 h)” value is on record as “A (Ymin < 30%)”.
The corresponding values for `Cc1cc(OC[C@H](C)CC2CCN(CC(=O)Nc3ccc4c(C5CCC(=O)NC5=O)nn(C)c4c3)CC2)ccc1-c1ccc(N2CCc3ccnc(C(=O)Nc4nc5ccccc5s4)c3C2)nc1C(=O)O` (single isomer, unassigned) [Compound 140a] are < 10 nM and “A (Ymin < 30%)”.
The corresponding values for `C[C@@H](CCC1CCN(CC(=O)Nc2ccc3c(C4CCC(=O)NC4=O)nn(C)c3c2)CC1)Oc1ccc(-c2ccc(N3CCc4cccc(C(=O)Nc5nc6ccccc6s5)c4C3)nc2C(=O)O)c(C(F)(F)F)c1` (single isomer, unassigned) [Compound 138a] are < 10 nM and “B (30% ≤ Ymin < 50%)”.
Take `COc1c(NC(=O)CN2CC[C@@H](CCCOc3cccc(-c4ccc(N5CCc6cccc(C(=O)Nc7nc8ccccc8s7)c6C5)nc4C(=O)O)c3C)C[C@H]2C)ccc2c(C3CCC(=O)NC3=O)nn(C)c12` (stereo partly drawn) [Compound 208d]: the DC50 lay within 10 to 100 nM and the “Ymin (24 h)” value is on record as “B (30% ≤ Ymin < 50%)”.
As to `Cc1cc(OC2CC3(CCN(CC(=O)Nc4ccc5c(C6CCC(=O)NC6=O)nn(C)c5c4)CC3)C2)ccc1-c1ccc(N2CCc3cccc(C(=O)Nc4nc5ccccc5s4)c3C2)nc1C(=O)O` (stereo not drawn) [Compound 112, 6-[8-(1,3-benzothiazol-2-ylcarbamoyl)-3,4-dihydro-1H-isoquinolin-2-yl]-3-[4-[[7-[2-[[3-(2,6-dioxo-3-piperidyl)-1-methyl-indazol-6-yl]amino]-2-oxo-ethyl]-7-azaspiro[3.5]nonan-2-yl]oxy]-2-methyl-phenyl]pyridine-2-carboxylic acid], the DC50 was < 10 nM and the “Ymin (24 h)” value was “A (Ymin < 30%)”.
The corresponding values for `Cn1nc(C2CCC(=O)NC2=O)c2ccc(NC(=O)CN3CCC4(CC3)CC(COc3ccc(-c5ccc(N6CCc7cccc(C(=O)Nc8nc9ccccc9s8)c7C6)nc5C(=O)O)c(C(F)(F)F)c3)C4)nc21` (stereo not drawn) [Compound 148] are 10 to 100 nM and “B (30% ≤ Ymin < 50%)”.
On the same counts, the results for `Cc1cc(O[C@@H](C)CCC2CCN(CC(=O)Nc3ccc4c(C5CCC(=O)NC5=O)nn(C)c4c3F)CC2)ccc1-c1ccc(N2CCc3cccc(C(=O)Nc4nc5ccccc5s4)c3C2)nc1C(=O)O` (single isomer, unassigned) [Compound 224a] are 10 to 100 nM and “B (30% ≤ Ymin < 50%)”.
The corresponding values for `C[C@H]1C[C@H](CCCOc2cccc(-c3ccc(N4CCc5cccc(C(=O)Nc6nc7ccccc7s6)c5C4)nc3C(=O)O)c2C(F)(F)F)CCN1CC(=O)Nc1ccc2c(C3CCC(=O)NC3=O)nn(C)c2c1` (stereo partly drawn) [Compound 215a] are 10 to 100 nM and “B (30% ≤ Ymin < 50%)”.
As to `Cc1cc(OC[C@H]2C[C@@H]2C2CCN(CC(=O)Nc3ccc4c(C5CCC(=O)NC5=O)nn(C)c4c3)CC2)ccc1-c1ccc(N2CCc3cccc(C(=O)Nc4nc5ccccc5s4)c3C2)nc1C(=O)O` (relative stereo) [Compound 1003a, 6-(8-(benzo[d]thiazol-2-ylcarbamoyl)-3,4-dihydroisoquinolin-2(1H)-yl)-3-(4-(((1S,2R)-2-(1-(2-((3-(2,6-dioxopiperidin-3-yl)-1-methyl-1H-indazol-6-yl)amino)-2-oxoethyl)piperidin-4-yl)cyclopropyl)methoxy)-2-methylphenyl)picolinic acid], the DC50 was < 10 nM and the “Ymin (24 h)” value was “A (Ymin < 30%)”.
Regarding `Cc1cc(N(C)CCCC2CCN(CC(=O)Nc3ccc4c(C5CCC(=O)NC5=O)nn(C)c4c3)CC2)ccc1-c1ccc(N2CCc3cccc(C(=O)Nc4nc5ccccc5s4)c3C2)nc1C(=O)O` (stereo not drawn) [Compound 222, 6-(8-(benzo[d]thiazol-2-ylcarbamoyl)-3,4-dihydroisoquinolin-2(1H)-yl)-3-(4-((3-(1-(2-((3-(2,6-dioxopiperidin-3-yl)-1-methyl-1H-indazol-6-yl)amino)-2-oxoethyl)piperidin-4-yl)propyl)(methyl)amino)-2-methylphenyl)picolinic acid], the DC50 was < 10 nM and the “Ymin (24 h)” value is recorded as “A (Ymin < 30%)”.
For the compound `Cc1cc(OCCCC2CCN(CC(=O)Nc3cc4c(cc3F)c(C3CCC(=O)NC3=O)nn4C)CC2)ccc1-c1ccc(N2CCc3cccc(C(=O)Nc4nc5ccccc5s4)c3C2)nc1C(=O)O` (stereo not drawn) [Compound 109], the DC50 lay within 10 to 100 nM and the “Ymin (24 h)” value is reported as “C (50% ≤ Ymin < 70%)”.
On the same counts, the results for `COc1c(NC(=O)CN2CC[C@@H](CCCOc3ccc(-c4ccc(N5CCc6cccc(C(=O)Nc7nc8ccccc8s7)c6C5)nc4C(=O)O)c(C)c3)C[C@H]2C)ccc2c(C3CCC(=O)NC3=O)nn(C)c12` (stereo partly drawn) [Compound 210d] are 10 to 100 nM and “A (Ymin < 30%)”.
With `Cn1nc(C2CCC(=O)NC2=O)c2ccc(NC(=O)CN3CCC4(CC3)CC(COc3cccc(-c5ccc(N6CCc7cccc(C(=O)Nc8nc9ccccc9s8)c7C6)nc5C(=O)O)c3C(F)(F)F)C4)cc21` (stereo not drawn) [Compound 132, 6-(8-(benzo[d]thiazol-2-ylcarbamoyl)-3,4-dihydroisoquinolin-2(1H)-yl)-3-(3-((7-(2-((3-(2,6-dioxopiperidin-3-yl)-1-methyl-1H-indazol-6-yl)amino)-2-oxoethyl)-7-azaspiro[3.5]nonan-2-yl)methoxy)-2-(trifluoromethyl)phenyl)picolinic acid], the DC50 was 10 to 100 nM and the “Ymin (24 h)” value was “B (30% ≤ Ymin < 50%)”.
As for `Cn1nc(C2CCC(=O)NC2=O)c2ccc(NC(=O)CN3CCC(CCCOc4cccc(-c5ccc(N6CCc7cccc(C(=O)Nc8nc9ccccc9s8)c7C6)nc5C(=O)O)c4F)CC3)cc21` (stereo not drawn) [Compound 198], the DC50 lay within 10 to 100 nM and the “Ymin (24 h)” value was “B (30% ≤ Ymin < 50%)”.
As for `Cc1c(OC[C@@H]2C[C@@H]2CC2CCN(CC(=O)Nc3ccc4c(C5CCC(=O)NC5=O)nn(C)c4c3)CC2)cccc1-c1ccc(N2CCc3cccc(C(=O)Nc4nc5ccccc5s4)c3C2)nc1C(=O)O` (single isomer, unassigned) [Compound 1004c], the DC50 is < 10 nM and the “Ymin (24 h)” value is listed as “B (30% ≤ Ymin < 50%)”.
Take `Cc1cc(OC[C@@H]2C[C@@H]2C2CCN(CC(=O)Nc3ccc4c(C5CCC(=O)NC5=O)nn(C)c4c3)CC2)ccc1-c1ccc(N2CCc3cccc(C(=O)Nc4nc5ccccc5s4)c3C2)nc1C(=O)O` (single isomer, unassigned) [Compound 1003d]: the DC50 was < 10 nM and the “Ymin (24 h)” value is reported as “A (Ymin < 30%)”.
